Test results taken from patent US20110230552A1, “USE OF DRONEDARONE FOR THE PREPARATION OF A MEDICAMENT FOR THE PREVENTION OF STROKE OR TRANSIENT ISCHEMIC ATTACK” (SANOFI-AVENTIS, priority 2008, published 2011).
Where a name gives a salt, the structure may show the parent alone. Read-outs that look alike come from different tables or passages of the source.

What was measured:
[1] = test system: patients with persistent atrial fibrillation; conditions: SAFE-T trial, cited from earlier work; for increasing the time to a recurrence of atrial fibrillation, versus placebo / effectiveness in increasing time to recurrence of atrial fibrillation relative to sotalol: P<0.001; for number of strokes per 100 patient-years of follow-up: calculated from page 1866 of Singh et al., placebo 1.91
[2] = test system: patients with a history of atrial fibrillation or atrial flutter; assay: Prospective, multinational, double-blind, randomized, placebo-controlled, parallel group trial (ATHENA) of dronedarone hydrochloride for prevention of stroke; format: in vivo, human
Experimental: Efficacy of dronedarone and its pharmaceutically acceptable salts versus placebo for the prevention of stroke was provided via dronedarone hydrochloride during a prospective, multinational, double-blind, randomized, multi-center, placebo-controlled, parallel group trial.
Eligible patients have a history of atrial fibrillation or atrial flutter and/or may be in normal sinus rhythm or in atrial fibrillation or flutter at the time of recruitment. Recruitment of patients was conducted taking into account the following inclusion criteria:
1) One of the following risk factors had to be present: • age equal to or greater than 70 years, • hypertension (taking antihypertensives of at least two different classes), • diabetes, • history of cerebral stroke (transient ischemic event or completed cerebral stroke) or of systemic embolism, • left atrial diameter greater than or equal to 50 mm measured by echocardiography, • left ventricular ejection fraction less than 40%, measured by two-dimensional echography; or • age equal to or above 70, or even above 75, possibly combined with at least one of the risk factors below: • hypertension (taking antihypertensives of at least two different classes), • diabetes, • history of cerebral stroke (transient ischemic event or completed cerebral stroke) or of systemic embolism, • left atrial diameter greater than or equal to 50 mm measured by echocardiography, • left ventricular ejection fraction less than 40%, measured by two-dimensional echography;
2) availability of one electrocardiogram within the last six months, showing that the patients was or is in atrial fibrillation/flutter,
3) availability of one electrocardiogram within the last six months, showing that the patients was or is in sinus rhythm.
Study drug treatment units (placebo or dronedarone hydrochloride corresponding to 400 mg of base) were such that each patient took one tablet in the morning during or shortly after breakfast and one tablet in the evening during or shortly after dinner.
The treatment duration depended on the time of recruitment of each patient in the trial and could be comprised from 12 months to 30 months.
Results were calculated using non-parametric Kaplan-Meier estimate.
Cox's proportional hazard model was used to estimate the hazard ratio also called relative risk.
Relative risk (RR) is the ratio between the risk of having a stroke (or transient ischemic attack (TIA)) for patients treated with dronedarone and the risk of having a stroke (or transient ischemic attack (TIA)) for patients treated with placebo.
Percentage of decrease of an event is calculated as follow: […]

[3] = on-treatment analysis of 30 months
[4] = versus placebo, Cox's proportional hazard model

CCCCc1oc2ccccc2c1C(=O)c1cc(I)c(OCCN(CC)CC)c(I)c1 [amiodarone]
increasing the time to a recurrence of atrial fibrillation, versus placebo [1]: significantly more effective than placebo | effectiveness in increasing time to recurrence of atrial fibrillation relative to sotalol ([1]; analysis according to the treatment actually received): four times as effective | number of strokes per 100 patient-years of follow-up [1]: 2.06 per 100 patient-years | effectiveness in increasing time to recurrence of atrial fibrillation relative to sotalol ([1]; intention-to-treat analysis): six times as effective as sotalol

CCCCc1oc2ccc(NS(C)(=O)=O)cc2c1C(=O)c1ccc(OCCCN(CCCC)CCCC)cc1 [dronedarone hydrochloride, 2-n-butyl-3-[4-(3-di-n-butylaminopropoxy)benzoyl]-5-méthylsulfonamido-benzofuranne]
fatal stroke events reported ([2]; 2301 of 4628 patients on drug, 400 mg base twice daily, 12 to 30 months, placebo group 18 events): 11 | ischemic stroke events reported ([2]; 2301 of 4628 patients on drug, 400 mg base twice daily, 12 to 30 months, placebo group 49 events): 33 | stroke events reported ([2]; 2301 of 4628 patients on drug, 400 mg base twice daily, 12 to 30 months, placebo group 70 events): 45 | stroke or TIA events reported ([2]; 2301 of 4628 patients on drug, 400 mg base twice daily, 12 to 30 months, placebo group 80 events): 52 | ACS events reported (cardiovascular hospitalization for Acute Coronary Syndrome) ([2]; 2301 of 4628 patients on drug, 400 mg base twice daily, 12 to 30 months, placebo group 89 events): 62 | stroke, Acute Coronary Syndrome (ACS) or cardiovascular death events reported ([2]; 2301 of 4628 patients on drug, 400 mg base twice daily, 12 to 30 months, placebo group 216 events): 147 | stroke, Acute Coronary Syndrome (ACS) or death events reported ([2]; 2301 of 4628 patients on drug, 400 mg base twice daily, 12 to 30 months, placebo group 262 events): 196 | time course of effect on first stroke (FIG. 2, Kaplan Meier cumulative incidence curves) [2, 3]: occurred early and increased over time | time course of effect on first stroke or TIA (FIG. 1, Kaplan Meier cumulative incidence curves) [2, 3]: occurred early and increased over time | relative risk of cardiovascular hospitalization for Acute Coronary Syndrome [2, 4]: 0.70 | relative risk of fatal stroke [2, 4]: 0.62 | relative risk of ischemic stroke [2, 4]: 0.68 | relative risk of stroke [2, 4]: 0.65 | relative risk of stroke or TIA [2, 4]: 0.65 | relative risk of stroke, Acute Coronary Syndrome (ACS) or cardiovascular death [2, 4]: 0.68 | decrease of the relative risk of cardiovascular hospitalization for Acute Coronary Syndrome ([2]; versus placebo, x=1-RR): 30% | decrease of the relative risk of fatal stroke ([2]; versus placebo, x=1-RR): 38% | decrease of the relative risk of ischemic stroke ([2]; versus placebo, x=1-RR): 32% | decrease of the relative risk of stroke ([2]; versus placebo, x=1-RR): 35% | decrease of the relative risk of stroke or TIA ([2]; versus placebo, x=1-RR): 35% | decrease of the relative risk of stroke, Acute Coronary Syndrome (ACS) or cardiovascular death ([2]; versus placebo, x=1-RR): 32% | decrease of the relative risk of stroke, Acute Coronary Syndrome (ACS) or death ([2]; versus placebo, x=1-RR): 25%

CC(C)NCC(O)c1ccc(NS(C)(=O)=O)cc1 (stereo not shown) [sotalol]
increasing the time to a recurrence of atrial fibrillation, versus placebo [1]: significantly more effective than placebo | number of strokes per 100 patient-years of follow-up [1]: 2.71 per 100 patient-years
